Measured values taken from patent US4211772A, “Benzopyran glycoside acetals and ketals” (Laboratoires Sarget, priority 1977, dated 1980).
Values after ≈ are worked out from the molar mass of the structure shown. Read-outs that look alike come from different tables or passages of the source.

Columns and labels:
Aldose Reductase = molecular target: T1, Aldose Reductase (Bos taurus, UniProt P16116); assay: Inhibition of aldose reductase in vitro (enzyme from beef eye lenses, glyceraldehyde substrate); format: biochemical; settings: in DMF solution, read-out: percentages of inhibition (aldose reductase); for inhibition at 100 µM: 10^-4 mole/l; for inhibition at 10 µM: 10^-5 mole/l; for inhibition at 1 µM: 10^-6 mole/l; for inhibition at 0.1 µM: 10^-7 mole/l
T1 construct: The enzyme is extracted from beef eye lenses; from tissue; host or cells: beef eye lenses
Text: Inhibition of Aldose Reductase In Vitro
The reoxidation of NADPH coupled to the enzymatic reaction was followed spectrophotometrically at 340 nm.

Solubilities in water = format: physicochemical; settings: water; read-out: Solubilities in water
carragenin edema = assay: Anti-inflammatory activity: carragenin edema test; format: in vivo; settings: for % inhibition of carragenin edema: borate buffer pH 7, 24 h; for inhibition in vivo at 75 mg/kg / inhibition in vivo at 100 mg/kg / inhibition in vivo at 150 mg/kg / inhibition in vivo at 200 mg/kg / inhibition in vivo at 50 mg/kg: Rattus norvegicus, ip
How it was run: (§1)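 Male Wistar EOPS rats receive 0.1 ml of 5% carragenin suspension in physiological serum into the hind-paw metatarsal muscle, with test substance given i.p. in neutralized solution at the same time. Paw edema is measured by plethysmometry at several times after carragenin and reported as % inhibition against pH-matched physiological serum controls.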

OF1 EOPS mice = assay: Acute i.p. toxicity in OF1 EOPS mice; format: in vivo; settings: neutralized borate buffer, over 7 days
Method: The acute toxicity of the compounds of the present invention was determined in mice.

capillary resistance = assay: Capillaroprotecting effects: capillary resistance; format: in vivo, male OFA EOPS rats
Method: (§2) Capillaroprotecting effects
The capillary resistance was determined by a variant of the method of Charlier et al, Arch. Inter. Physiol.

capillary permeability = assay: Capillaroprotecting effects: capillary permeability; format: in vivo, conventional male Wistar rats
Method: as §2
The capillary permeability was determined by the method of Charlier et al, Arch. Inter. Physiol.

[1] = Anti-inflammatory activity: carragenin edema test; format: in vivo; settings: rat, in vivo, ip, borate buffer pH 7
How it was run: as §1

[2] = 1 h, pH 7, read-out: % inhibition of carragenin edema, 75 mg/kg i.p., borate buffer pH 7, 1 h
[3] = 1 h, pH 7, read-out: % inhibition of carragenin edema, 75 mg/kg i.p., borate buffer pH 7, 1 h 1/2
[4] = 1 h, pH 7, read-out: % inhibition of carragenin edema, 100 mg/kg i.p., borate buffer pH 7, 1 h
[5] = 1 h, pH 7, read-out: % inhibition of carragenin edema, 100 mg/kg i.p., borate buffer pH 7, 1 h 1/2
[6] = 1 h, pH 7, read-out: % inhibition of carragenin edema, 150 mg/kg i.p., borate buffer pH 7, 1 h
[7] = 1 h, pH 7, read-out: % inhibition of carragenin edema, 150 mg/kg i.p., borate buffer pH 7, 1 h 1/2
[8] = 2 h, pH 7, read-out: % inhibition of carragenin edema, 75 mg/kg i.p., borate buffer pH 7, 2 h
[9] = 2 h, pH 7, read-out: % inhibition of carragenin edema, 100 mg/kg i.p., borate buffer pH 7, 2 h
[10] = 2 h, pH 7, read-out: % inhibition of carragenin edema, 150 mg/kg i.p., borate buffer pH 7, 2 h
[11] = 3 h, pH 7, read-out: % inhibition of carragenin edema, 75 mg/kg i.p., borate buffer pH 7, 3 h
[12] = 3 h, pH 7, read-out: % inhibition of carragenin edema, 100 mg/kg i.p., borate buffer pH 7, 3 h
[13] = 3 h, pH 7, read-out: % inhibition of carragenin edema, 150 mg/kg i.p., borate buffer pH 7, 3 h
[14] = 4 h, pH 7, read-out: % inhibition of carragenin edema, 75 mg/kg i.p., borate buffer pH 7, 4 h
[15] = 4 h, pH 7, read-out: % inhibition of carragenin edema, 100 mg/kg i.p., borate buffer pH 7, 4 h
[16] = 4 h, pH 7, read-out: % inhibition of carragenin edema, 150 mg/kg i.p., borate buffer pH 7, 4 h
[17] = 5 h, pH 7, read-out: % inhibition of carragenin edema, 75 mg/kg i.p., borate buffer pH 7, 5 h
[18] = 5 h, pH 7, read-out: % inhibition of carragenin edema, 100 mg/kg i.p., borate buffer pH 7, 5 h
[19] = 5 h, pH 7, read-out: % inhibition of carragenin edema, 150 mg/kg i.p., borate buffer pH 7, 5 h
[20] = 6 h, pH 7, read-out: % inhibition of carragenin edema, 75 mg/kg i.p., borate buffer pH 7, 6 h
[21] = 6 h, pH 7, read-out: % inhibition of carragenin edema, 100 mg/kg i.p., borate buffer pH 7, 6 h
[22] = 6 h, pH 7, read-out: % inhibition of carragenin edema, 150 mg/kg i.p., borate buffer pH 7, 6 h
[23] = read-out: % inhibition of carragenin edema, 75 mg/kg i.p., borate buffer pH 7, 1/2 h
[24] = read-out: % inhibition of carragenin edema, 100 mg/kg i.p., borate buffer pH 7, 1/2 h
[25] = read-out: % inhibition of carragenin edema, 150 mg/kg i.p., borate buffer pH 7, 1/2 h

C[C@@H]1O[C@@H](Oc2c(-c3ccc(O)c(O)c3)oc3cc(O)cc(O)c3c2=O)[C@@H]2OC(C)(C)O[C@@H]2[C@H]1O [No. 3, 3-O-(2,3-O,O-isopropylidene-α-L-rhamnosyl)-quercetin]
inhibition at 100 µM (Aldose Reductase): 100%
inhibition at 10 µM (Aldose Reductase): 92%
inhibition at 1 µM (Aldose Reductase): 80%
inhibition at 0.1 µM (Aldose Reductase): 40%
solubility (Solubilities in water): 1600 µg/mL (≈ 3.28 mM)
% inhibition of carragenin edema (carragenin edema; 75 mg/kg i.p.): 21%
% inhibition of carragenin edema (carragenin edema; 100 mg/kg i.p.): 17%
% inhibition of carragenin edema (carragenin edema; 150 mg/kg i.p.): 11%
% inhibition of carragenin edema (carragenin edema; 200 mg/kg i.p.): 0%
inhibition in vivo at 75 mg/kg (carragenin edema; [2]): 0%
inhibition in vivo at 75 mg/kg (carragenin edema; [3]): 0%
inhibition in vivo at 100 mg/kg (carragenin edema; [4]): 55%
inhibition in vivo at 100 mg/kg (carragenin edema; [5]): 41%
inhibition in vivo at 150 mg/kg (carragenin edema; [6]): 0%
inhibition in vivo at 150 mg/kg (carragenin edema; [7]): 0%
inhibition in vivo at 200 mg/kg (carragenin edema; 1 h, pH 7, read-out: % inhibition of carragenin edema, 200 mg/kg i.p., borate buffer pH 7, 1 h): 45%
inhibition in vivo at 200 mg/kg (carragenin edema; 1 h, pH 7, read-out: % inhibition of carragenin edema, 200 mg/kg i.p., borate buffer pH 7, 1 h 1/2): 12%
inhibition in vivo at 75 mg/kg (carragenin edema; [8]): 10%
inhibition in vivo at 100 mg/kg (carragenin edema; [9]): 30%
inhibition in vivo at 150 mg/kg (carragenin edema; [10]): 20%
inhibition in vivo at 200 mg/kg (carragenin edema; 2 h, pH 7, read-out: % inhibition of carragenin edema, 200 mg/kg i.p., borate buffer pH 7, 2 h): 0%
inhibition in vivo at 75 mg/kg (carragenin edema; [11]): 6%
inhibition in vivo at 100 mg/kg (carragenin edema; [12]): 19%
inhibition in vivo at 150 mg/kg (carragenin edema; [13]): 0%
inhibition in vivo at 200 mg/kg (carragenin edema; 3 h, pH 7, read-out: % inhibition of carragenin edema, 200 mg/kg i.p., borate buffer pH 7, 3 h): 0%
inhibition in vivo at 75 mg/kg (carragenin edema; [14]): 3%
inhibition in vivo at 100 mg/kg (carragenin edema; [15]): 18%
inhibition in vivo at 150 mg/kg (carragenin edema; [16]): 2%
inhibition in vivo at 200 mg/kg (carragenin edema; 4 h, pH 7, read-out: % inhibition of carragenin edema, 200 mg/kg i.p., borate buffer pH 7, 4 h): 0%
inhibition in vivo at 75 mg/kg (carragenin edema; [17]): 6%
inhibition in vivo at 100 mg/kg (carragenin edema; [18]): 19%
inhibition in vivo at 150 mg/kg (carragenin edema; [19]): 3%
inhibition in vivo at 200 mg/kg (carragenin edema; 5 h, pH 7, read-out: % inhibition of carragenin edema, 200 mg/kg i.p., borate buffer pH 7, 5 h): 2%
inhibition in vivo at 75 mg/kg (carragenin edema; [20]): 10%
inhibition in vivo at 100 mg/kg (carragenin edema; [21]): 18%
inhibition in vivo at 150 mg/kg (carragenin edema; [22]): 8%
inhibition in vivo at 200 mg/kg (carragenin edema; 6 h, pH 7, read-out: % inhibition of carragenin edema, 200 mg/kg i.p., borate buffer pH 7, 6 h): 1%
inhibition in vivo at 75 mg/kg (carragenin edema; [23]): 26%
inhibition in vivo at 100 mg/kg (carragenin edema; [24]): 45%
inhibition in vivo at 150 mg/kg (carragenin edema; [25]): 26%
inhibition in vivo at 200 mg/kg (carragenin edema; read-out: % inhibition of carragenin edema, 200 mg/kg i.p., borate buffer pH 7, 1/2 h): 40%
dose until which no mortality resulted (OF1 EOPS mice): 400 mg/kg
% of animals for which the effect is ≥ 25 u cm Hg/h (capillary resistance; 50 mg/kg i.p.): 40%
capillary resistance, effect observed (capillary resistance; 50 mg/kg i.p.): 19.5 ± 7.4 u cm Hg/h
% of animals for which the effect is ≥ 25 u cm Hg/h (capillary resistance; 100 mg/kg i.p.): 80%
capillary resistance, effect observed (capillary resistance; 100 mg/kg i.p.): 34.75 ± 11.1 u cm Hg/h
% of animals for which the effect is ≥ 25 u cm Hg/h (capillary resistance; 200 mg/kg i.p.): 100%
capillary resistance, effect observed (capillary resistance; 200 mg/kg i.p.): 56 ± 11.3 u cm Hg/h
percentage reduction of capillary permeability (capillary permeability; 50 mg/kg i.p.): 21%
percentage reduction of capillary permeability (capillary permeability; 100 mg/kg i.p.): 25%
percentage reduction of capillary permeability (capillary permeability; 200 mg/kg i.p.): 59%

C[C@@H]1O[C@@H](Oc2c(-c3ccc(O)c(O)c3)oc3cc(O)cc(O)c3c2=O)[C@@H]2OC3(CCCCC3)O[C@@H]2[C@H]1O [No. 7, 3-O-(2,3-O,O-cyclohexylidene-α-L-rhamnosyl)-quercetin]
inhibition at 100 µM (Aldose Reductase): 91%
inhibition at 10 µM (Aldose Reductase): 95%
inhibition at 1 µM (Aldose Reductase): 84%
inhibition at 0.1 µM (Aldose Reductase): 87%
solubility (Solubilities in water): < 100 µg/mL
% inhibition of carragenin edema (carragenin edema; 50 mg/kg i.p.): 10%
% inhibition of carragenin edema (carragenin edema; 75 mg/kg i.p.): 84%
% inhibition of carragenin edema (carragenin edema; 100 mg/kg i.p.): 67%
% inhibition of carragenin edema (carragenin edema; 150 mg/kg i.p.): 87%
inhibition in vivo at 50 mg/kg (carragenin edema; 1 h, pH 7, read-out: % inhibition of carragenin edema, 50 mg/kg i.p., borate buffer pH 7, 1 h): 14%
inhibition in vivo at 50 mg/kg (carragenin edema; 1 h, pH 7, read-out: % inhibition of carragenin edema, 50 mg/kg i.p., borate buffer pH 7, 1 h 1/2): 22%
inhibition in vivo at 75 mg/kg (carragenin edema; [2]): 73%
inhibition in vivo at 75 mg/kg (carragenin edema; [3]): 91%
inhibition in vivo at 100 mg/kg (carragenin edema; [4]): 51%
inhibition in vivo at 100 mg/kg (carragenin edema; [5]): 52%
inhibition in vivo at 150 mg/kg (carragenin edema; [6]): 89%
inhibition in vivo at 150 mg/kg (carragenin edema; [7]): 97%
inhibition in vivo at 50 mg/kg (carragenin edema; 2 h, pH 7, read-out: % inhibition of carragenin edema, 50 mg/kg i.p., borate buffer pH 7, 2 h): 16%
inhibition in vivo at 75 mg/kg (carragenin edema; [8]): 89%
inhibition in vivo at 100 mg/kg (carragenin edema; [9]): 48%
inhibition in vivo at 150 mg/kg (carragenin edema; [10]): 97%
inhibition in vivo at 50 mg/kg (carragenin edema; 3 h, pH 7, read-out: % inhibition of carragenin edema, 50 mg/kg i.p., borate buffer pH 7, 3 h): 23%
inhibition in vivo at 75 mg/kg (carragenin edema; [11]): 86%
inhibition in vivo at 100 mg/kg (carragenin edema; [12]): 45%
inhibition in vivo at 150 mg/kg (carragenin edema; [13]): 94%
inhibition in vivo at 50 mg/kg (carragenin edema; 4 h, pH 7, read-out: % inhibition of carragenin edema, 50 mg/kg i.p., borate buffer pH 7, 4 h): 21%
inhibition in vivo at 75 mg/kg (carragenin edema; [14]): 81%
inhibition in vivo at 100 mg/kg (carragenin edema; [15]): 46%
inhibition in vivo at 150 mg/kg (carragenin edema; [16]): 89%
inhibition in vivo at 50 mg/kg (carragenin edema; 5 h, pH 7, read-out: % inhibition of carragenin edema, 50 mg/kg i.p., borate buffer pH 7, 5 h): 7%
inhibition in vivo at 75 mg/kg (carragenin edema; [17]): 83%
inhibition in vivo at 100 mg/kg (carragenin edema; [18]): 45%
inhibition in vivo at 150 mg/kg (carragenin edema; [19]): 91%
inhibition in vivo at 50 mg/kg (carragenin edema; 6 h, pH 7, read-out: % inhibition of carragenin edema, 50 mg/kg i.p., borate buffer pH 7, 6 h): 6%
inhibition in vivo at 75 mg/kg (carragenin edema; [20]): 81%
inhibition in vivo at 100 mg/kg (carragenin edema; [21]): 43%
inhibition in vivo at 150 mg/kg (carragenin edema; [22]): 86%
inhibition in vivo at 50 mg/kg (carragenin edema; read-out: % inhibition of carragenin edema, 50 mg/kg i.p., borate buffer pH 7, 1/2 h): 0%
inhibition in vivo at 75 mg/kg (carragenin edema; [23]): 48%
inhibition in vivo at 100 mg/kg (carragenin edema; [24]): 21%
inhibition in vivo at 150 mg/kg (carragenin edema; [25]): 70%
mortality at 24 h ([1]; 100 mg/kg i.p.): 20%
mortality at 5 h ([1]; 150 mg/kg i.p.): 80%
